For experiment [1], the target named is T1, TLR7 (Homo sapiens, UniProt Q9NYK1).
T1 construct: host or cells: HEK-Blue cells (human HEK) co-expressing TLR7 and an NF-kB/AP1-inducible SEAP reporter
T1 sequence (Q9NYK1 27-1049): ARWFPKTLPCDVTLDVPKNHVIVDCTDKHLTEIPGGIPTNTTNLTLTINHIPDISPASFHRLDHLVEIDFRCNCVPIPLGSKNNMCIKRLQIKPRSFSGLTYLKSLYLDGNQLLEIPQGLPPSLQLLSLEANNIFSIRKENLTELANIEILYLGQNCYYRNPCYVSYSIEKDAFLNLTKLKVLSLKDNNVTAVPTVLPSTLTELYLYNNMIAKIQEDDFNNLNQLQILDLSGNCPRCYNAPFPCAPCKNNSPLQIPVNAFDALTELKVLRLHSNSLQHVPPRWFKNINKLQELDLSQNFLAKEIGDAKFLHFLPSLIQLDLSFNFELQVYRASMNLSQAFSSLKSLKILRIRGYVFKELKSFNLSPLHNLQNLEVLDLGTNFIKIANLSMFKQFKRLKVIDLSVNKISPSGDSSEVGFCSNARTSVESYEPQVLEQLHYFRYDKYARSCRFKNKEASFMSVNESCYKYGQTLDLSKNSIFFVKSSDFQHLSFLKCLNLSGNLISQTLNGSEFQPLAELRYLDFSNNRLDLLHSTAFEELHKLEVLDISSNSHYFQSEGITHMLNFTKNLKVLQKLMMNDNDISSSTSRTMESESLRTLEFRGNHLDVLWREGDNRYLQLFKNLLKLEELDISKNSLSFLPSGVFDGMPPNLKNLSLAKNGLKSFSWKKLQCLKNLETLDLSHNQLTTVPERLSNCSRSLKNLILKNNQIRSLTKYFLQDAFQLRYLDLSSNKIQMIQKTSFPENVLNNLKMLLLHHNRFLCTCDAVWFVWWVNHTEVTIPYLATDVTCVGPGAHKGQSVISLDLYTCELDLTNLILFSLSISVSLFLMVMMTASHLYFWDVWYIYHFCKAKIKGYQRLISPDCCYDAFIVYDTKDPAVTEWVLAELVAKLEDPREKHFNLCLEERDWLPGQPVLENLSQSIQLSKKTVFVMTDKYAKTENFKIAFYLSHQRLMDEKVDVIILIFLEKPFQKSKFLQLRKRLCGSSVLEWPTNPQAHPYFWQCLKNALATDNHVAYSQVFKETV
The experiment can be described thus: In vitro human TLR7 binding reporter assay (HEK-Blue, NF-kB/AP1-inducible SEAP). The experiment is classed as cell-based. The settings on record: activity range symbols. In a few lines:
(§1)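 Reporter cells are plated at 15,000 per well and rested 24 h. Next day, test compounds or DMSO are dispensed, followed by 18 h incubation at 37 °C, 5% CO2.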
(In general: Reporter assays use an easily measured gene product as a stand-in for the process of interest.)

Experiment [2] concerns the target T2, TLR8 (Homo sapiens, UniProt Q9NR97).
T2 construct: host or cells: HEK-Blue cells (human HEK) co-expressing TLR8 and an NF-kB/AP1-inducible SEAP reporter
T2 sequence (Q9NR97 27-1041): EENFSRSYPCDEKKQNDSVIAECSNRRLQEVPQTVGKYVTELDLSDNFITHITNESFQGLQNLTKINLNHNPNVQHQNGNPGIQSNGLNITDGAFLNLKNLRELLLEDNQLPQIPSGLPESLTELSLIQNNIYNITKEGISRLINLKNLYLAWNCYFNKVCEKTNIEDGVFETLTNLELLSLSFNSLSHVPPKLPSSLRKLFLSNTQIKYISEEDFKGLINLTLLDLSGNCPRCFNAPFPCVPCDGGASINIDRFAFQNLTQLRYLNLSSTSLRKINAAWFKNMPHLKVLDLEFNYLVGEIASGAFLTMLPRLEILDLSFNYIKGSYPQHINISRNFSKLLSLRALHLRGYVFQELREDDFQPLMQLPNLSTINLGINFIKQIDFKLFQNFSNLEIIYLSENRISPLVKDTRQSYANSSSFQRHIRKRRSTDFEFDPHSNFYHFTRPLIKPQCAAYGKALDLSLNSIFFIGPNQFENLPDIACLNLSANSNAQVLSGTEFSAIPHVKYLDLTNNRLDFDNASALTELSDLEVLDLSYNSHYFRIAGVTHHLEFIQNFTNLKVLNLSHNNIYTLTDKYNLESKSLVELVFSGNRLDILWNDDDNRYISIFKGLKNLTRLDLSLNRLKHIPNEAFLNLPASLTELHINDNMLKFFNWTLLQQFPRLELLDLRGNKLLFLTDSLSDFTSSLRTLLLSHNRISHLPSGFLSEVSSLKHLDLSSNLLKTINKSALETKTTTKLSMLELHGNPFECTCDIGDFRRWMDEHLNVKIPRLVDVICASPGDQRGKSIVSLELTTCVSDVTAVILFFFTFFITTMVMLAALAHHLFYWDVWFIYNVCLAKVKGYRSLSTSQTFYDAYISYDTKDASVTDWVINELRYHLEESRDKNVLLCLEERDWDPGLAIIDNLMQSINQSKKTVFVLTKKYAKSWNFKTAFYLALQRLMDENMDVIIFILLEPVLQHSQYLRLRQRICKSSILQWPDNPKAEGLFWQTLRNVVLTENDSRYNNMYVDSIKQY
Briefly: In vitro human TLR8 binding reporter assay (HEK-Blue, NF-kB/AP1-inducible SEAP). Type of experiment: cell-based. The procedure, abridged: as §1

Molecules are shown by their SMILES.

One may read the EC50 as the midpoint of the concentration-response curve.

As for `CCN(Cc1nc2c(N)nc3cc(-c4cc[nH]n4)ccc3c2[nH]1)S(=O)(=O)C(C)C` [Compound 459, N-{[4-amino-7-(1H-pyrazol-3-yl)-1H-imidazo[4,5-c]quinolin-2-yl]methyl}-N-ethylpropane-2-sulfonamide], the concentration for a half-maximal effect (EC50) in experiment [1] and in experiment [2] (activity range symbols) was > 100 µM each time.
Turning to `CCCS(=O)(=O)N(CC)Cc1nc2c(N)nc3cc(-c4cc[nH]n4)ccc3c2[nH]1` [Compound 460, N-{[4-amino-7-(1H-pyrazol-3-yl)-1H-imidazo[4,5-c]quinolin-2-yl]methyl}-N-ethylpropane-1-sulfonamide], the EC50 in experiment [1] is > 100 µM; in experiment [2] (numeric bounds), > 62 µM.
As to `CCNCc1nc2c(N)nc3cc(-c4ccn[nH]4)ccc3c2n1CCO` [Compound 462, 2-[4-Amino-2-[(ethylamino)methyl]-7-(1H-pyrazol-5-yl)-1H-imidazo[4,5-c]quinolin-1-yl]ethan-1-ol], the EC50 in experiment [1] and in experiment [2] (activity range symbols) was > 100 µM throughout.
On to `CCn1c(CN2CCCC2=O)nc2c(N)nc3cc(-c4cccs4)ccc3c21` [Compound 463, 1-{[4-amino-1-ethyl-7-(thiophen-2-yl)-1H-imidazo[4,5-c]quinolin-2-yl]methyl}pyrrolidin-2-one], for which the half-maximal effective concentration (EC50) in experiment [1] and in experiment [2] (activity range symbols) was > 100 µM each time.
Regarding `CCNCc1nc2c(N)nc3cc(-c4ccn[nH]4)ccc3c2n1CC` [Compound 464, 1-ethyl-2-[(ethylamino)methyl]-7-(1H-pyrazol-5-yl)-1H-imidazo[4,5-c]quinolin-4-amine], the EC50 in experiment [1] and in experiment [2] (activity range symbols) was > 100 µM throughout.
As for `CCn1c(CN2CCCC2=O)nc2c(N)nc3cc(-n4cccn4)ccc3c21` [Compound 465, 1-{[4-amino-1-ethyl-7-(1H-pyrazol-1-yl)-1H-imidazo[4,5-c]quinolin-2-yl]methyl}pyrrolidin-2-one], the EC50 in experiment [1] and in experiment [2] (activity range symbols) was > 100 µM in each case.
Consider `CCn1c(CN2CCCC2=O)nc2c(N)nc3cc(-c4ccn[nH]4)ccc3c21` [Compound 466, 1-{[4-amino-1-ethyl-7-(1H-pyrazol-5-yl)-1H-imidazo[4,5-c]quinolin-2-yl]methyl}pyrrolidin-2-one], for which the EC50 in experiment [1] and in experiment [2] (activity range symbols) was > 100 µM throughout.
For `CCNCc1nc2c(N)nc3cc(-n4cccn4)ccc3c2n1CC` [Compound 467, 1-ethyl-2-((ethylamino)methyl)-7-(1H-pyrazol-1-yl)-1H-imidazo[4,5-c]quinolin-4-amine], the EC50 in experiment [1] and in experiment [2] (activity range symbols) was > 100 µM each time.
For `CCNCc1nc2c(N)nc3cc(-c4cccs4)ccc3c2n1CC` [Compound 468, 1-ethyl-2-[(ethylamino)methyl]-7-(thiophen-2-yl)-1H-imidazo[4,5-c]quinolin-4-amine], the 50% effective concentration (EC50) in experiment [1] and in experiment [2] (activity range symbols) was > 100 µM in each case.
Consider `Nc1nc2cc(-c3cccs3)ccc2c2c1nc(CN1CCCC1=O)n2CCO` [Compound 469, 1-{[4-amino-1-(2-hydroxyethyl)-7-(thiophen-2-yl)-1H-imidazo[4,5-c]quinolin-2-yl]methyl}pyrrolidin-2-one], for which the EC50 in experiment [1] and in experiment [2] (activity range symbols) was > 100 µM throughout.
For the molecule `CCC(=O)N(CC)Cc1nc2c(N)nc3cc(-c4cccs4)ccc3c2n1CCO` [Compound 470, N-{[4-amino-1-(2-hydroxyethyl)-7-(thiophen-2-yl)-1H-imidazo[4,5-c]quinolin-2-yl]methyl}-N-ethylpropanamide], the half-maximal effective concentration (EC50) in experiment [1] and in experiment [2] (activity range symbols) was > 100 µM throughout.
Turning to `CCNCc1nc2c(N)nc3cc(-c4cccs4)ccc3c2n1CCO` [Compound 471, 2-{4-amino-2-[(ethylamino)methyl]-7-(thiophen-2-yl)-1H-imidazo[4,5-c]quinolin-1-yl}ethan-1-ol], the EC50 in experiment [1] and in experiment [2] (activity range symbols) was > 100 µM each time.
Take `CCN(Cc1nc2c(N)nc3cc(-c4cccs4)ccc3c2n1CC)C(C)=O` [Compound 472, N-{[4-amino-1-ethyl-7-(thiophen-2-yl)-1H-imidazo[4,5-c]quinolin-2-yl]methyl}-N-ethylacetamide]: the EC50 in experiment [1] and in experiment [2] (activity range symbols) was > 100 µM throughout.
As to `CCC(=O)N(CC)Cc1nc2c(N)nc3cc(-c4ccn[nH]4)ccc3c2n1CC` [Compound 473, N-{[4-amino-1-ethyl-7-(1H-pyrazol-5-yl)-1H-imidazo[4,5-c]quinolin-2-yl]methyl}-N-ethylpropanamide], the concentration giving a half-maximal response (EC50) in experiment [1] and in experiment [2] (activity range symbols) was > 100 µM throughout.
For `CCN(Cc1nc2c(N)nc3cc(-c4ccn[nH]4)ccc3c2n1CC)C(C)=O` [Compound 474, N-{[4-amino-1-ethyl-7-(1H-pyrazol-5-yl)-1H-imidazo[4,5-c]quinolin-2-yl]methyl}-N-ethylacetamide], the EC50 in experiment [1] and in experiment [2] (activity range symbols) was > 100 µM in each case.
On to `CCC(=O)N(CC)Cc1nc2c(N)nc3cc(-c4ccn[nH]4)ccc3c2n1CCO` [Compound 475, N-{[4-amino-1-(2-hydroxyethyl)-7-(1H-pyrazol-5-yl)-1H-imidazo[4,5-c]quinolin-2-yl]methyl}-N-ethylpropanamide], for which the EC50 in experiment [1] and in experiment [2] (activity range symbols) was > 100 µM throughout.
Turning to `CCN(Cc1nc2c(N)nc3cc(-n4cccn4)ccc3c2n1CCO)C(C)=O` [Compound 476, N-{[4-amino-1-(2-hydroxyethyl)-7-(1H-pyrazol-1-yl)-1H-imidazo[4,5-c]quinolin-2-yl]methyl}-N-ethylacetamide], the EC50 in experiment [1] and in experiment [2] (activity range symbols) was > 100 µM throughout.
Take `CCNCc1nc2c(N)nc3cc(-n4cccn4)ccc3c2n1CCO` [Compound 477, 2-[4-amino-2-[(ethylamino)methyl]-7-(1H-pyrazol-1-yl)-1H-imidazo[4,5-c]quinolin-l-yl]ethan-1-ol]: the half-maximal effective concentration (EC50) in experiment [1] and in experiment [2] (activity range symbols) was > 100 µM each time.
On to `CCC(=O)N(CC)Cc1nc2c(N)nc3cc(-n4cccn4)ccc3c2n1CCO` [Compound 478, N-{[4-amino-1-(2-hydroxyethyl)-7-(1H-pyrazol-1-yl)-1H-imidazo[4,5-c]quinolin-2-yl]methyl}-N-ethylpropanamide], for which the EC50 in experiment [1] and in experiment [2] (activity range symbols) was > 100 µM in each case.
`CCN(Cc1nc2c(N)nc3cc(-n4cccn4)ccc3c2n1CC)C(C)=O` [Compound 479, N-{[4-amino-1-ethyl-7-(1H-pyrazol-1-yl)-1H-imidazo[4,5-c]quinolin-2-yl]methyl}-N-ethylacetamide]: the concentration for a half-maximal effect (EC50) in experiment [1] and in experiment [2] (activity range symbols) was > 100 µM each time.
For the molecule `CCC(=O)N(CC)Cc1nc2c(N)nc3cc(-c4cccs4)ccc3c2n1CC` [Compound 480, N-{[4-amino-1-ethyl-7-(thiophen-2-yl)-1H-imidazo[4,5-c]quinolin-2-yl]methyl}-N-ethylpropanamide], the EC50 in experiment [1] and in experiment [2] (activity range symbols) was > 100 µM each time.

Source of the values: US12351580B2, “NLRP3 modulators” (Innate Tumor Immunity, Inc., priority 2017, dated 2025).
